Measurements from US20250084039A1, “4-SUBSTITUTED AMINOISOQUINOLINE DERIVATIVES” (Purdue Research Foundation, priority 2016, published 2025).
Where two headings read alike, the source gives them in different places.

Legend:
Assay type in all cases: cell-based
[1] = test system: HeLa; assay: Proliferation inhibition at single concentration (CellTiter-Blue); settings: for Percent inhibition of proliferation HeLa: 1 μM compound
Protocol: (§1) Plates were then treated with compound diluted in dimethyl sulfoxide (DMSO) as well as a DMSO control the following day for 72 hours. After this time the plates were then treated with 10 μL of CellTiter-Blue Cell Viability Assay (Promega, Madison, WI) for 4 hours. Then the plates were read on a plate reader (Bio-Tek, Winooski, VT). Data was analyzed on Excel as a percent of the DMSO vehicle.
(§2) Antiproliferative activities against AML cell line, MV4-11 (a FLT3-driven cell line) and three other solid tumors (MCF7, breast, HCT116, colon and HeLa) have been investigated (Tables 6A and 6B and FIG. 10).

[2] = test system: MCF-7; assay: as above; settings: for Percent inhibition of proliferation MCF-7: 1 μM compound
Protocol: as §1, §2

[3] = test system: K562; assay: IC50 proliferation assay (Alamar Blue, 72 h)
Protocol: IC50 proliferation assay—Cell lines and primary cells were seeded into 96-well plates the afternoon prior to treatment. Approximately 18 hours later, compounds were semi-serially diluted in dimethyl sulfoxide (DMSO) and then growth medium, and added to cells. Plates were incubated for 72 hours prior to addition of Alamar Blue (Life Technologies, Carlsbad, CA). Plates were read after 4 additional hours of incubation at 37° C. using a Bio-Tek Synergy HT plate reader (Bio-Tek, Winooski, VT). Data was analyzed and graphed using GraphPad Prism Software (Graphpad, La Jolla. CA).
IC50 (proliferation inhibition) against leukemia cell lines MV4-11 and K562. […] MiaPaca-2 (Pancreatic cell line), HLY-1 (Lymphoma cell line), MV4-11 (AML, cell line) and K562 (CML cell line).

[4] = test system: MV-4-11; assay: Proliferation inhibition at single concentration (CellTiter-Blue); settings: 1 μM compound
[5] = test system: HCT116; assay: as above; settings: 1 μM compound
[6] = test system: MV4-11; assay: Activity against AML cell line MV4-11 (CellTiter-Blue, 72 h)
Protocol: Cells were added to 96 well plates at 2000 cells per well for adherent lines and 4000 cells per well for suspension lines and kept in an incubator overnight. The following day the plates were treated with compounds to give rise to the final concentrations of; 100 μM, 10 μM, 5 μM 1 μM, 500 nM, 100 nM, 10 nM, […]. The plates were then stored in the incubator for 72 hours. On the third day the cells were assayed with 20 μL of CellTiter—Blue Cell Viability Assay per well and were incubated for 4 hours. After 4 hours' fluorescence intensity was taken on a plate reader: Excitation: 560/10 Emission: 590/10. IC50 analysis was performed on GraphPad Prism 7.

[7] = Table 18, read-out: Inhibition of proliferation of K562 cell lines (CML)
[8] = 72 h, read-out: IC50 against MV4-11/uM
[9] = FIG. 1, read-out: anticancer activities (IC50) against MV4-11
[10] = Homo sapiens, K562, Table 18, read-out: Inhibition of proliferation of K562 cell lines (CML)

| Structure (SMILES) | Percent inhibition of proliferation MV-4-11 [4] [%] | Percent inhibition of proliferation HCT116 [5] [%] | Percent inhibition of proliferation HeLa [1] [%] | Percent inhibition of proliferation MCF-7 [2] [%] | other results |
| --- | --- | --- | --- | --- | --- |
| Nc1ncc2ccc(Cl)cc2c1C#Cc1ccc(C2=NC(C3CC3)CN2)cc1 (stereo not shown) [Compound 1703] |  |  |  |  | activity against HeLa in words ([1]; FIG. 3): potent; activity against MCF-7 in words ([2]; FIG. 2): potent |
| Cc1ccc(C(=O)NCCN2CCCC2)cc1C#Cc1c(N)ncc2ccc(Cl)cc12 [HSL41] |  |  |  |  | IC50 [3, 7]: 0.0301 ± 0.00019 µM |
| Cc1ccc(C(=O)NCCN2CCOCC2)cc1C#Cc1c(N)ncc2ccc(Cl)cc12 [HSL43] |  |  |  |  | IC50 [3, 7]: 0.0101 ± 0.0001 µM |
| Cc1ccc(C(=O)NCCN2CCCCC2)cc1C#Cc1cnc2cccnn12 [HSL44] |  |  |  |  | IC50 [3, 7]: 0.0435 ± 0.00014 µM |
| Cc1ccc(C(=O)NCCN2CCCCC2)cc1C#Cc1cnc(N)c2ncccc12 [HSL45] |  |  |  |  | IC50 [3, 7]: 0.0253 ± 0.0001 µM |
| Cc1ccc(C(=O)NCCN2CCN(C)CC2)cc1C#Cc1c(N)ncc2ccc(Cl)cc12 [HSL47] |  |  |  |  | IC50 [3, 7]: 0.1611 ± 0.00011 µM |
| Cc1ccc(C(=O)NCCCN2CCCCC2)cc1C#Cc1c(N)ncc2ccc(Cl)cc12 [HSL56] |  |  |  |  | IC50 [3, 7]: 0.0954 ± 0.00023 µM |
| Cc1ccc(C(=O)NCCN2CCCCC2)cc1C#Cc1cnc(N)c2ccccc12 [HSL58] |  |  |  |  | IC50 [3, 7]: 0.0945 ± 0.0001 µM |
| Nc1ncc2ccc(Cl)cc2c1C#Cc1ccc(C(=O)NCCCN2CCOCC2)cc1 [HSM1610] | 90 | 39 | 20 | 29 |  |
| N#Cc1cccc(C#Cc2c(N)ncc3ccc(Cl)cc23)c1 [HSM1617] |  |  |  |  | IC50 [6, 8]: 0.77 µM |
| CN1CCN(Cc2ccc(NC(=O)c3ccc(C#Cc4c(N)ncc5ccc(Cl)cc45)cc3)cc2)CC1 [HSM1661] | 90 | 0 | 1 | 96 | IC50 [6, 8]: 0.016 µM |
| CN(C)CCNC(=O)c1ccc(C#Cc2c(N)ncc3ccc(Cl)cc23)cc1 [HSM1669] | 83 | 46 | 20 | 98 | IC50 [6, 8]: 0.26 µM; IC50 [6, 9]: 0.26 µM |
| CN(C)CCCCCNC(=O)c1ccc(C#Cc2c(N)ncc3ccc(Cl)cc23)cc1 [HSM1684] |  |  |  |  | IC50 [6, 8]: 0.071 µM; IC50 [6, 9]: 0.071 µM |
| O=C(NCCCN1CCCCC1)c1ccc(C#Cc2cncc3ccccc23)cc1 [HSM1690] |  |  |  |  | IC50 [6, 8]: 3.09 µM |
| CC(C)(C)OC(=O)N1CCN(CCCNC(=O)c2ccc(C#Cc3c(N)ncc4ccc(Cl)cc34)cc2)CC1 [HSM1693] |  |  |  |  | IC50 [6, 8]: 0.03 µM; IC50 ([6]; Table 2, read-out: IC50 (nM) against MV4-11 (AML cell line)): 0.0148 ± 0.0014 µM |
| Nc1ncc2ccc(Cl)cc2c1C#Cc1ccc(C(=O)NCC(O)CN2CCCCC2)cc1 (stereo not shown) [HSM1725] |  |  |  |  | IC50 [6, 8]: 0.008 µM |
| Nc1ncc2ccc(Cl)cc2c1C#Cc1ccc(C(=O)NCC(O)CN2CCCC2)cc1 (stereo not shown) [HSM1750] | 93 | 20 | 11 | 17 |  |

| Structure (SMILES) | Percent inhibition of proliferation MV-4-11 [4] [%] | Percent inhibition of proliferation HCT116 [5] [%] | Percent inhibition of proliferation HeLa [1] [%] | Percent inhibition of proliferation MCF-7 [2] [%] | other results |
| --- | --- | --- | --- | --- | --- |
| Nc1ncc2ccc(Cl)cc2c1C#Cc1cccc(C(=O)NCC(O)CN2CCCC2)c1 (stereo not shown) [HSM1751] | 91 | 32 | 23 | 47 |  |
| Nc1ncc2ccc(Cl)cc2c1C#Cc1ccc(C(=O)N2CCC3(CCNCC3)CC2)cc1 [HSM1773] | 93 | 24 | 24 | 43 |  |
| CN(C)CCOc1ccc(CNC(=O)c2ccc(C#Cc3c(N)ncc4ccc(Cl)cc34)cc2)cc1 [HSN99] | 97 | 20 | 6 | 42 |  |
| CC(C)(C)OC(=O)NC1CCN(C(=O)c2ccc(C#Cc3c(N)ncc4ccc(Cl)cc34)cc2)CC1 [HSN139] | 95 | 32 | 35 | 60 |  |
| Nc1ncc2ccc(Cl)cc2c1C#Cc1ccc(C(=O)NCCc2c[nH]cn2)cc1 [HSN145] | 99 | 35 | 11 | 6 |  |
| Nc1ncc2ccc(Cl)cc2c1C#Cc1cccc(C(=O)NCCc2c[nH]cn2)c1 [HSN157] | 96 | 12 | 33 | 21 |  |
| CN(C)CC(O)CNC(=O)c1cccc(C#Cc2c(N)ncc3ccc(Cl)cc23)c1 (stereo not shown) [HSN161] | 97 | 18 | 70 | 91 |  |
| Nc1ncc2ccc(Cl)cc2c1C#Cc1cccc(C(=O)N2CCC(N)CC2)c1.O=C(O)C(F)(F)F [HSN174] | 85 | 28 | 10 | 40 |  |
| NCC(O)CNC(=O)c1ccc(C#Cc2c(N)ncc3ccc(Cl)cc23)cc1 (stereo not shown) [HSN177] | 91 | 15 | 1 | 46 |  |
| CCN(CC)CC(O)CNC(=O)c1ccc(C#Cc2c(N)ncc3ccc(Cl)cc23)cc1 (stereo not shown) [HSN184] | 97 | 38 | 51 | 92 |  |
| CCN(CC)CC(O)CNC(=O)c1ccc(C)c(C#Cc2c(N)ncc3ccc(Cl)cc23)c1 (stereo not shown) [HSN185] | 97 | 67 | 99 | 100 |  |
| CCN(CC)CC(O)CNC(=O)c1cccc(C#Cc2c(N)ncc3ccc(Cl)cc23)c1 (stereo not shown) [HSN189] | 95 | 7 | 18 | 49 |  |
| NCCNC(=O)c1ccc(C#Cc2c(N)ncc3ccc(Cl)cc23)cc1 [HSN204] | 77 | 21 | 22 | 20 |  |
| COc1cc2nc(N)nc(C#Cc3cc(C(=O)NCc4ccc(OCCN(C)C)cc4)ccc3C)c2cc1OC [HSN317, 3-((2-amino-6,7-dimethoxyquinazolin-4-yl)ethynyl)-N-(4-(2-(dimethylamino)ethoxy)benzyl)-4-methylbenzamide] |  |  |  |  | IC50 ([3]; Homo sapiens, K562, 72 h, read-out: IC50 (proliferation inhibition) Cell line - K562): 1.48 µM; IC50 [3, 10]: 1.483 ± 0.0001 µM |
| Cc1ccc(C(=O)Nc2ccc(CN3CCN(C)CC3)c(C(F)(F)F)c2)cc1C#Cc1c(N)nc(C)c2ccccc12 [HSN375, 3-((3-amino-1-methylisoquinolin-4-yl)ethynyl)-4-methyl-N-(4-((4-methylpiperazin-1-yl)methyl)-3-(trifluoromethyl)phenyl)benzamide] |  |  |  |  | IC50 [3, 10]: 0.0088 ± 0.0004 µM |
| Cc1ccc(C(=O)Nc2ccc(CN3CCN(C)CC3)c(C(F)(F)F)c2)cc1C#Cc1c(N)ncc2cc(Cl)c(Cl)cc12 [HSN393, 3-((3-amino-6,7-dichloroisoquinolin-4-yl)ethynyl)-4-methyl-N-(4-((4-methylpiperazin-1-yl)methyl)-3-(trifluoromethyl)phenyl)benzamide] |  |  |  |  | IC50 [3, 10]: 0.0073 ± 4e-05 µM |
